Source: patent US6303591A, “21-hydroxy-6,19-oxidoprogesterone (21OH-6OP) and its use as medicament for treating excess of glucocorticoids” (Applied Research Systems ARS Holding NV, priority 1997, dated 2001)

Columns and labels:
MR = settings: background; cited from earlier work
[1] = biological target: T1, uterus PR (progesterone receptor) (Rattus norvegicus, UniProt Q63449); test: (^3 H)-P4 binding to uterus cytosols (PR); settings: uterus cytosol, 12 h at 0° C., 1 μM cortisol
T1 sequence (Q63449 1-923): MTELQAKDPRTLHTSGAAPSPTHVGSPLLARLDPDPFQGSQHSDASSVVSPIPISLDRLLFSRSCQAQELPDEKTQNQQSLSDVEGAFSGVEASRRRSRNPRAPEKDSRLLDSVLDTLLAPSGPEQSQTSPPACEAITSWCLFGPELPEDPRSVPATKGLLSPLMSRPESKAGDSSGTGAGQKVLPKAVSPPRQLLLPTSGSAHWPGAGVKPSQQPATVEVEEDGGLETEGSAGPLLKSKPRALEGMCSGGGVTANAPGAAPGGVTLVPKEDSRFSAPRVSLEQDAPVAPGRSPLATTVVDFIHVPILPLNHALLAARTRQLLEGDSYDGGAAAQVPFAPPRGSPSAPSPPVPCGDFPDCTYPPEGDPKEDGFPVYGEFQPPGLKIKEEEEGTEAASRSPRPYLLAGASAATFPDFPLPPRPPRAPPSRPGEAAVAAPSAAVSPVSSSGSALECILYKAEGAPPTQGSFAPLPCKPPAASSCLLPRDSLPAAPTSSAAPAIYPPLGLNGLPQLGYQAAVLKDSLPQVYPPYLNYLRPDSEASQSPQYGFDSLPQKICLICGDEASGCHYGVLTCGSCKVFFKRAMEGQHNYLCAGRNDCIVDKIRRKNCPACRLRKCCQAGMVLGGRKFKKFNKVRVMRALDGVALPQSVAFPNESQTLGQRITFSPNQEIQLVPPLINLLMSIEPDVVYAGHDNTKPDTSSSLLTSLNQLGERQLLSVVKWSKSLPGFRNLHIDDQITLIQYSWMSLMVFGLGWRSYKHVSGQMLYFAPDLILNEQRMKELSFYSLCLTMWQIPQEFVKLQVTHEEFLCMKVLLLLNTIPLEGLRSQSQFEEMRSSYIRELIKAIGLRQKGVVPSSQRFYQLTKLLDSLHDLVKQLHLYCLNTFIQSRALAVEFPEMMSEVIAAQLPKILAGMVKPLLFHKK
Description: Binding Assay: Adrenalectomized male Sprague-Dawley rats were bled to death by heart puncture. Cold 0.9% NaCI was injected profusely through the aorta until organs were completely blanched. Thymuses were used as a source of GR and kidneys as a source of MR. Homogenization and incubation conditions were performed as previously described, (14) and (15), respectively. Briefly, homogenates performed in cold TEGM buffer at pH 7.4 (0.1 M Tris-HCl, 10 mM EDTA, 10 mM α-mercaptoethanol, 20 mM Na2 MoO4, 25% glycerol, 0.1 mM PMSF, 2.0 TIU/ml aprotinin and 1 mg% Leupeptin) were centrifuged at 37,000 rev. for 30 min at 0° C. Supernatants from this centrifugation are referred to as "cytosol". […] (^3 H)-P4 binding to uterus PR was assayed on immature female rats according to Jordan et al (16).
Relative binding affinity (RBA) for partially purified CBG was determined by steroid competition for (^3 H)-B binding as described previously (14).

GR = settings: background; cited from earlier work

CC(=O)[C@H]1CC[C@H]2[C@@H]3CCC4=CC(=O)CC[C@]4(C)[C@H]3CC[C@]12C [P4, progesterone]
cross-reaction with MR (MR): exhibits cross-reaction with both MR and GR
displacement of (^3 H)-P4 from uterus receptors / cross-reaction with PR [1]: able to displace the tracer efficiently
cross-reaction with GR (GR): exhibits cross-reaction with both MR and GR
